Reference: patent US11001561B2, “Pyrimidinone derivatives as SHP2 antagonists” (MERCK PATENT GMBH, priority 2019, dated 2021)
Counter-ions that a name gives are not always drawn.

These compounds were tested against Full length SHP2 protein (Recombinant Human SHP-2) (Homo sapiens (Human), UniProt Q06124) (assay: SHP2 biochemical assay (DiFMUP substrate, activating peptide IRSI_2pY)). Conditions: SHP-2 biochemical assay IC50 (μM), activating peptide IRSI_2pY 140 nM, DiFMUP, 60 min.
Full length SHP2 protein (Recombinant Human SHP-2), sequence (Q06124 2-593): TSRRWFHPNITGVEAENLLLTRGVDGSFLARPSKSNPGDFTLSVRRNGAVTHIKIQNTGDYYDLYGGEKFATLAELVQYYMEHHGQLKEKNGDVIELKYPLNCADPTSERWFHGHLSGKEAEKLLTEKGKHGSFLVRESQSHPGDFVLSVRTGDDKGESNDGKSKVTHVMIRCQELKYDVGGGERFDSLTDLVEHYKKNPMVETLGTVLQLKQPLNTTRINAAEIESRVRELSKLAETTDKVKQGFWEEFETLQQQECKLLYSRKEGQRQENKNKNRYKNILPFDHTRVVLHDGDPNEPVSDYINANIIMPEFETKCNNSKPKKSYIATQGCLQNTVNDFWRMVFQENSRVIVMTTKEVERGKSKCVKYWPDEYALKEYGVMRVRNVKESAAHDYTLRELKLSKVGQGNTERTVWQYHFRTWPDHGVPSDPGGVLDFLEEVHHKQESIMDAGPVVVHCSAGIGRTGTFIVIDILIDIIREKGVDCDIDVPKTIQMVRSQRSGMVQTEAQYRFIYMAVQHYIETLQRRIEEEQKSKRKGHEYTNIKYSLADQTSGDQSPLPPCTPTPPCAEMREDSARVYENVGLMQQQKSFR
Description: The inhibition of SHP2 by compounds of the invention was monitored using the surrogate substrate DiFMUP after protein activation by a peptide bearing two appropriately spaced phosphotyrosine. […] The generation of the DiFMU product by activated SHP2 was monitored through Fluorescence measurement with a PerkinElmer Envision reader. The inhibitor dose response curves were analyzed with Genedata Screener.

Row | Structure (SMILES) | IC50 [µM]
1 | COc1c(N2CCC3(CC2)CO[C@@H](C)[C@H]3N)nc(C)n(-c2cccc(Cl)c2Cl)c1=O (single isomer, unassigned) [Compound 73b] | 0.91
2 | Cc1c(N2CCC3(CC2)Oc2ccccc2[C@H]3N)nc(C)n(-c2cccc(Cl)c2Cl)c1=O (single isomer, unassigned) [Compound 81a] | 0.47

Same assay, conditions: activating peptide IRSI_2pY 140 nM, DiFMUP, 60 min; read-out: SHP-2 biochemical assay IC50

Row | Structure (SMILES) | IC50 [µM]
3 | Cc1c(N2CCC3(CCC[C@@H]3N)CC2)nc(N)n(-c2cccc(Cl)c2Cl)c1=O (single isomer, unassigned) [Compound 78a] | > 50
4 | Cc1c(N2CCC3(CCC[C@H]3N)CC2)nc(N)n(-c2cccc(Cl)c2Cl)c1=O (single isomer, unassigned) [Compound 78b] | > 10
5 | Cc1c(N2CCC3(CC2)Oc2cnccc2C3N)nc(C)n(-c2cccc(Cl)c2Cl)c1=O (single isomer, unassigned) [Compound 80c] | 0.005
6 | Cc1c(N2CCC3(CC2)Oc2cnccc2[C@@H]3N)nc(C)n(-c2cccc(Cl)c2Cl)c1=O (single isomer, unassigned) [Compound 80d] | 1.4
7 | Cc1nc(N2CCC3(CC2)Cc2ccccc2[C@H]3N)cc(=O)n1-c1cccc(Cl)c1Cl (single isomer, unassigned) [Compound 119a] | 0.27
8 | CSc1nc(N2CCC(C)(N)CC2)cc(=O)n1-c1cccc(Cl)c1Cl [Compound 1, 6-(4-amino-4-methylpiperidin-1-yl)-3-(2,3-dichlorophenyl)-2-(methylsulfanyl)-3,4-dihydropyrimidin-4-one] | 8.6
9 | Cc1nc(N2CCC(C)(CN)CC2)cc(=O)n1-c1cccc(Cl)c1Cl [Compound 4, 6-[4-(aminomethyl)-4-methylpiperidin-1-yl]-3-(2,3-dichlorophenyl)-2-methyl-3,4-dihydropyrimidin-4-one] | 0.26
10 | Cc1nc(N2CCC3(CC2)CO[C@@H](C)[C@H]3N)cc(=O)n1-c1ccccc1 [Compound 7, 6-[(3S,4S)-4-amino-3-methyl-2-oxa-8-azaspiro[4.5]decan-8-yl]-2-methyl-3-phenyl-3,4-dihydropyrimidin-4-one] | 4.8
11 | Nc1nc(N2CCC3(CC2)CC(F)(F)C[C@H]3N)cc(=O)n1-c1cccc(Cl)c1Cl [Compound 8, 2-amino-6-[(1R)-1-amino-3,3-difluoro-8-azaspiro[4.5]decan-8-yl]-3-(2,3-dichlorophenyl)-3,4-dihydropyrimidin-4-one] | 1.1
12 | Cc1nc(C2=CCC(C)(CN)CC2)cc(=O)n1-c1cccc(Cl)c1Cl (centres unmarked) [Compound 9, 6-[4-(aminomethyl)-4-methylcyclohex-1-en-1-yl]-3-(2,3-dichlorophenyl)-2-methyl-3,4-dihydropyrimidin-4-one] | 16
13 | Cc1nc(N2CCC(C)(N)CC2)c(Cl)c(=O)n1-c1cccc(Cl)c1Cl [Compound 10, 6-(4-amino-4-methylpiperidin-1-yl)-5-chloro-3-(2,3-dichlorophenyl)-2-methyl-3,4-dihydropyrimidin-4-one] | 1.1
14 | CC1(N)CCN(c2cc(=O)n(-c3cccc(Cl)c3Cl)c(C(F)F)n2)CC1 [Compound 11, 6-(4-amino-4-methylpiperidin-1-yl)-3-(2,3-dichlorophenyl)-2-(difluoromethyl)-3,4-dihydropyrimidin-4-one] | 3.8
15 | Cc1c(N2CCC(C)(N)CC2)nc(C)n(-c2cccc(Cl)c2Cl)c1=O [Compound 12, 6-(4-amino-4-methylpiperidin-1-yl)-3-(2,3-dichlorophenyl)-2,5-dimethyl-3,4-dihydropyrimidin-4-one] | 1
16 | Cc1nc(N2CCC3(CC2)CC3CN)cc(=O)n1-c1cccc(Cl)c1Cl (centres unmarked) [Compound 13, 6-[1-(aminomethyl)-6-azaspiro[2.5]octan-6-yl]-3-(2,3-dichlorophenyl)-2-methyl-3,4-dihydropyrimidin-4-one] | 4.3
17 | Cc1nc(N2CC3CCCC3(CN)C2)cc(=O)n1-c1cccc(Cl)c1Cl (centres unmarked) [Compound 14, 6-[3a-(aminomethyl)-octahydrocyclopenta[c]pyrrol-2-yl]-3-(2,3-dichlorophenyl)-2-methyl-3,4-dihydropyrimidin-4-one] | 6.6
18 | Cc1nc(N2CCC(CO)(CCN)CC2)cc(=O)n1-c1cccc(Cl)c1Cl [Compound 16, 6-[4-(2-aminoethyl)-4-(hydroxymethyl)piperidin--yl]-3-(2,3-dichlorophenyl)-2-methyl-3,4-dihydropyrimidin-4-one] | 4.3
19 | CC1(CN)CCN(c2cc(=O)n(-c3cccc(Cl)c3Cl)c(C(F)F)n2)CC1 [Compound 17, 6-[4-(aminomethyl)-4-methylpiperidin-1-yl]-3-(2,3-dichlorophenyl)-2-(difluoromethyl)-3,4-dihydropyrimidin-4-one] | 3
20 | Cc1nc(N2CCCC(C)(N)CC2)cc(=O)n1-c1cccc(Cl)c1Cl (centres unmarked) [Compound 21, 6-(4-amino-4-methylazepan-1-yl)-3-(2,3-dichlorophenyl)-2-methyl-3,4-dihydropyrimidin-4-one hydrochloride] | 1.6
21 | Cc1nc(N2CCC(N)(C(N)=O)CC2)cc(=O)n1-c1cccc(Cl)c1Cl [Compound 22, 4-amino-1-[1-(2,3-dichlorophenyl)-2-methyl-6-oxo-1,6-dihydropyrimidin-4-yl]piperidine-4-carboxamide] | 2.1
22 | Cc1nc(N2CCC(O)(CN)CC2)cc(=O)n1-c1cccc(Cl)c1Cl [Compound 28, 6-[4-(aminomethyl)-4-hydroxypiperidin-1-yl]-3-(2,3-dichlorophenyl)-2-methyl-3,4-dihydropyrimidin-4-one] | 3.5
23 | CNC1(C)CCN(c2cc(=O)n(-c3cccc(Cl)c3Cl)c(C)n2)CC1 [Compound 31, 3-(2,3-dichlorophenyl)-2-methyl-6-[4-methyl-4-(methylamino)piperidin-1-yl]-3,4-dihydropyrimidin-4-one] | 0.56
24 | CCc1c(N2CCC3(CC2)CO[C@@H](C)[C@H]3N)nc(C)n(-c2cccc(Cl)c2Cl)c1=O [Compound 36, 6-[(3S,4S)-4-amino-3-methyl-2-oxa-8-azaspiro[4.5]decan-8-yl]-3-(2,3-dichlorophenyl)-5-ethyl-2-methyl-3,4-dihydropyrimidin-4-one] | 5
25 | Cc1c(N2CCC(C)(N)CC2)nc(C)n(-c2ccc3ccccc3c2)c1=O [Compound 39, 6-(4-Amino-4-methyl-piperidin-1-yl)-2,5-dimethyl-3-naphthalen-2-yl-3H-pyrimidin-4-one] | > 10
26 | Cc1nc(N2CCC(NC[C@@H](O)CO)CC2)cc(=O)n1-c1cccc(Cl)c1Cl [Compound 41, 3-(2,3-dichlorophenyl)-6-(4-{[(2R)-2,3-dihydroxypropyl]-amino}piperidin-1-yl)-2-methyl-3,4-dihydropyrimidin-4-one] | 2.5
27 | Cc1nc(N2CCC(NC[C@H](O)CO)CC2)cc(=O)n1-c1cccc(Cl)c1Cl [Compound 42, 3-(2,3-dichlorophenyl)-6-(4-{[(2S)-2,3-dihydroxypropyl]amino}-piperidin-1-yl)-2-methyl-3,4-dihydropyrimidin-4-one] | 4.3
28 | Cc1c(N2CCC(C)(N)CC2)nc(C)n(-c2cccc3ncsc23)c1=O [Compound 43, 6-(4-Amino-4-methyl-piperidin-1-yl)-3-benzothiazol-7-yl-2,5-dimethyl-3H-pyrimidin-4-one] | > 10
29 | Cc1c(N2CCC(C)(CN)CC2)nc(C)n(-c2ccc3ccccc3c2)c1=O [Compound 44, 6-(4-Aminomethyl-4-rnethyl-piperidin-1-yl)-2,5-dimethyl-3-naphthalen-2-yl-3H-pyrimidin-4-one] | 18
